Assay [1] deals with M. tuberculosis MDR (resistant to isoniazid and rifampicin). The assay is described as follows: microbe, parasite or virus in culture. The following applies: Mycobacterium tuberculosis, 504 h, read-out: MIC M. tb MDR. It counts as cell-based.
The subject of assay [2] is M. tuberculosis XDR (resistant to isoniazid, rifampicin, amikacin and moxifloxacin). The assay is described as follows: microbe, parasite or virus in culture. In kind it is cell-based. The following applies: Mycobacterium tuberculosis, 504 h, read-out: MIC M. tb XDR.

≈ marks a conversion by molar mass, not a printed value.

As for `C[C@]1(COc2ccc(S(=O)(=O)N3CCN(c4ccc(OC(F)(F)F)cc4)CC3)cc2)Cn2cc([N+](=O)[O-])nc2O1` [IIC4, (R)-2-{4-[4-(4-trifluoromethoxyphenyl)piperazin-1-yl]sulfonylphenoxymethyl}-2,3-dihydro-2-methyl-6-nitroimidazo[2,1-b]oxazole], the MIC in assay [1] and in assay [2] was 2 µg/mL (≈ 3.43 µM) in each case.

Consider `C[C@]1(COc2ccc(-n3nnnc3-c3ccc(OC(F)(F)F)cc3)cc2)Cn2cc([N+](=O)[O-])nc2O1` [IB2, (R)-2-{4-[5-(4-trifluoromethoxyphenyl)-1H-tetrazol-1-yl]phenoxymethyl}-2,3-dihydro-2-methyl-6-nitroimidazo[2,1-b]oxazole], for which the MIC in assay [1] and in assay [2] was 2 µg/mL (≈ 3.97 µM) in each case.

With `COc1ccc(-c2cc(-c3ccc(OC[C@@]4(C)Cn5cc([N+](=O)[O-])nc5O4)cc3)no2)cc1` [IC7, (R)-2-{4-[5-(4-methoxyphenyl)isoxazol-3-yl]phenoxymethyl}-2,3-dihydro-2-methyl-6-nitroimidazo[2,1-b]oxazole], the MIC in assay [1] and in assay [2] was 1 µg/mL (≈ 2.23 µM) each time.

As to `C[C@]1(COc2ccc(-c3cc(COc4ccccc4)on3)cc2)Cn2cc([N+](=O)[O-])nc2O1` [IC21, (R)-2-{4-[5-(phenoxymethyl)isoxazol-3-yl]phenoxymethyl}-2,3-dihydro-2-methyl-6-nitroimidazo[2,1-b]oxazole], the MIC in assay [1] and in assay [2] was 4 µg/mL (≈ 8.92 µM) each time.

In the case of `C[C@]1(COc2cccc(-n3cc(-c4ccc(OC(F)(F)F)cc4)nn3)c2)Cn2cc([N+](=O)[O-])nc2O1` [IA19, (R)-2-{3-[4-(4-trifluoromethoxyphenyl)-1H-1,2,3-triazol-1-yl]phenoxymethyl}-2,3-dihydro-2-methyl-6-nitroimidazo[2,1-b]oxazole], the MIC in assay [1] and in assay [2] was 4 µg/mL (≈ 7.96 µM) in each case.

For the molecule `C[C@]1(COc2ccc(-n3cc(COc4ccc(C(F)(F)F)cc4)nn3)cc2)Cn2cc([N+](=O)[O-])nc2O1` [IA27], the MIC in assay [1] and in assay [2] was 0.25 µg/mL (≈ 0.484 µM) each time.

Take `COc1ccc(-c2cn(-c3ccc(OC[C@@]4(C)Cn5cc([N+](=O)[O-])nc5O4)cc3)nn2)cc1` [IA11, (R)-2-{4-[4-(4-methoxyphenyl)-1H-1,2,3-triazol-1-yl]phenoxymethyl}-2,3-dihydro-2-methyl-6-nitroimidazo[2,1-b]oxazole]: the MIC in assay [1] and in assay [2] was 0.25 µg/mL (≈ 0.557 µM) in each case.

As for `C[C@]1(COc2ccc(-c3cc(-c4cccc(F)c4)on3)cc2)Cn2cc([N+](=O)[O-])nc2O1` [IC8, (R)-2-{4-[5-(3-fluorophenyl)isoxazol-3-yl]phenoxymethyl}-2,3-dihydro-2-methyl-6-nitroimidazo[2,1-b]oxazole], the MIC in assay [1] and in assay [2] was 2 µg/mL (≈ 4.58 µM) each time.

Consider `C[C@]1(COc2ccc(S(=O)(=O)N3CCN(c4ccccc4)CC3)cc2)Cn2cc([N+](=O)[O-])nc2O1` [IIC1, (R)-2-{4-(4-phenylpiperazin-1-yl)sulfonylphenoxymethyl}-2,3-dihydro-2-methyl-6-nitroimidazo[2,1-b]oxazole], for which the MIC in assay [1] and in assay [2] was 1 µg/mL (≈ 2 µM) each time.

Turning to `Cc1ccc(NS(=O)(=O)c2ccc(OC[C@@]3(C)Cn4cc([N+](=O)[O-])nc4O3)cc2)cc1` [IIB1, (R)-4-{(2-methyl-6-nitro-2,3-dihydroimidazo[2,1-b]oxazol-2-yl)methoxy}-N-(p-tolyl)benzenesulfonamide], the MIC in assay [1] and in assay [2] was 2 µg/mL (≈ 4.5 µM) in each case.

Regarding `CC(C)c1ccc(OCc2cc(-c3ccc(OC[C@@]4(C)Cn5cc([N+](=O)[O-])nc5O4)cc3)no2)cc1` [IC18, (R)-2-{4-[5-(4-isopropylphenoxymethyl)isoxazol-3-yl]phenoxymethyl}-2,3-dihydro-2-methyl-6-nitroimidazo[2,1-b]oxazole], the MIC in assay [1] and in assay [2] was 0.25 µg/mL (≈ 0.51 µM) throughout.

As to `C[C@]1(COc2ccc(-c3cc(-c4ccccc4F)on3)cc2)Cn2cc([N+](=O)[O-])nc2O1` [IC4, (R)-2-{4-[5-(2-fluorophenyl)isoxazol-3-yl]phenoxymethyl}-2,3-dihydro-2-methyl-6-nitroimidazo[2,1-b]oxazole], the MIC in assay [1] and in assay [2] was 2 µg/mL (≈ 4.58 µM) each time.

As for `C[C@]1(COc2ccc(-c3cc(-c4ccccn4)on3)cc2)Cn2cc([N+](=O)[O-])nc2O1` [IC9, (R)-2-{4-[5-(pyridin-2-yl)isoxazol-3-yl]phenoxymethyl}-2,3-dihydro-2-methyl-6-nitroimidazo[2,1-b]oxazole], the MIC in assay [1] and in assay [2] was 2 µg/mL (≈ 4.77 µM) in each case.

Take `C[C@]1(COc2ccc(S(=O)(=O)Nc3ccc(C(F)(F)F)cc3)cc2)Cn2cc([N+](=O)[O-])nc2O1` [IIB3, (R)-4-{(2-methyl-6-nitro-2,3-dihydroimidazo[2,1-b]oxazol-2-yl)methoxy}-N-(4 trifluoromethylphenyl)benzenesulfonamide]: the MIC in assay [1] and in assay [2] was 2 µg/mL (≈ 4.01 µM) in each case.

Consider `C[C@]1(COc2ccc(-n3cc(COc4ccccc4F)nn3)cc2)Cn2cc([N+](=O)[O-])nc2O1` [IA28], for which the MIC in assay [1] and in assay [2] was 0.12 µg/mL (≈ 0.257 µM) each time.

Regarding `CCC(C)c1ccc(OCc2cn(-c3ccc(OC[C@@]4(C)Cn5cc([N+](=O)[O-])nc5O4)cc3)nn2)cc1` (some centres unmarked) [IA32], the MIC in assay [1] and in assay [2] was 0.12 µg/mL (≈ 0.238 µM) each time.

Consider `C[C@]1(COc2ccc(NC(=O)Nc3ccc(OC(F)(F)F)cc3)cc2)Cn2cc([N+](=O)[O-])nc2O1` [IIA6, (R)-1-(4-trifluoromethoxyphenyl)-3-{4-(2-methyl-6-nitro-2,3-dihydroimidazo[2,1-b]oxazol-2-yl)methoxyphenyl}urea], for which the MIC in assay [1] and in assay [2] was 0.5 µg/mL (≈ 1.01 µM) throughout.

For `C[C@]1(COc2ccc(NC(=O)Nc3ccc(F)cc3)cc2)Cn2cc([N+](=O)[O-])nc2O1` [IIA1, (R)-1-(4-fluorophenyl)-3-{4-(2-methyl-6-nitro-2,3-dihydroimidazo[2,1-b]oxazol-2-yl)methoxyphenyl}urea], the MIC in assay [1] and in assay [2] was 2 µg/mL (≈ 4.68 µM) in each case.

`C[C@]1(COc2cccc(-n3cc(-c4ccc(C(F)(F)F)cc4)nn3)c2)Cn2cc([N+](=O)[O-])nc2O1` [IA18, (R)-2-{3-[4-(4-trifluoromethylphenyl)-1H-1,2,3-triazol-1-yl]phenoxymethyl}-2,3-dihydro-2-methyl-6-nitroimidazo[2,1-b]oxazole]: the MIC in assay [1] and in assay [2] was 2 µg/mL (≈ 4.11 µM) each time.

In the case of `C[C@]1(COc2ccccc2-n2cc(COc3ccc(OC(F)(F)F)cc3)nn2)Cn2cc([N+](=O)[O-])nc2O1` [IA39], the MIC in assay [1] and in assay [2] was 1 µg/mL (≈ 1.88 µM) each time.

Turning to `C[C@]1(COc2ccc(-n3nnnc3Oc3ccc(C(F)(F)F)cc3)cc2)Cn2cc([N+](=O)[O-])nc2O1` [IB8, (R)-2-{4-[5-(4-trifluoromethylphenoxy)-1H-tetrazol-1-yl]phenoxymethyl}-2,3-dihydro-2-methyl-6-nitroimidazo[2,1-b]oxazole], the MIC in assay [1] and in assay [2] was 4 µg/mL (≈ 7.95 µM) each time.

For the molecule `C[C@]1(COc2ccc(-n3nnnc3-c3ccc(F)cc3)cc2)Cn2cc([N+](=O)[O-])nc2O1` [IB4, (R)-2-{4-[5-(4-fluorophenyl)-1H-tetrazol-1-yl]phenoxymethyl}-2,3-dihydro-2-methyl-6-nitroimidazo[2,1-b]oxazole], the MIC in assay [1] and in assay [2] was 4 µg/mL (≈ 9.15 µM) each time.

With `C[C@]1(COc2ccc(NC(=S)Nc3ccc(C(F)(F)F)cc3)cc2)Cn2cc([N+](=O)[O-])nc2O1` [IIA10, (R)-1-(4-trifluoromethylphenyl)-3-{4-(2-methyl-6-nitro-2,3-dihydroimidazo[2,1-b]oxazol-2-yl)methoxyphenyl}thiourea], the MIC in assay [1] and in assay [2] was 4 µg/mL (≈ 8.11 µM) each time.

Consider `C[C@]1(COc2ccc(NC(=S)Nc3ccc(OC(F)(F)F)cc3)cc2)Cn2cc([N+](=O)[O-])nc2O1` [IIA8, (R)-1-(4-trifluoromethoxyphenyl)-3-{4-(2-methyl-6-nitro-2,3-dihydroimidazo[2,1-b]oxazol-2-yl)methoxyphenyl}thiourea], for which the MIC in assay [1] and in assay [2] was 2 µg/mL (≈ 3.93 µM) throughout.

In the case of `CCc1ccc(NC(=O)Nc2ccc(OC[C@@]3(C)Cn4cc([N+](=O)[O-])nc4O3)cc2)cc1` [IIA2, (R)-1-(4-ethylphenyl)-3-{4-(2-methyl-6-nitro-2,3-dihydroimidazo[2,1-b]oxazol-2-yl)methoxyphenyl}urea], the MIC in assay [1] and in assay [2] was 0.5 µg/mL (≈ 1.14 µM) throughout.

As for `C[C@]1(COc2ccc(-c3cc(-c4ccc(OC(F)(F)F)cc4)on3)cc2)Cn2cc([N+](=O)[O-])nc2O1` [IC10, (R)-2-{4-[5-(4-trifluoromethoxyphenyl)isoxazol-3-yl]phenoxymethyl}-2,3-dihydro-2-methyl-6-nitroimidazo[2,1-b]oxazole], the MIC in assay [1] and in assay [2] was 0.5 µg/mL (≈ 0.995 µM) each time.

`C[C@]1(COc2cccc(-n3cc(COc4ccc(OC(F)(F)F)cc4)nn3)c2)Cn2cc([N+](=O)[O-])nc2O1` [IA33]: the MIC in assay [1] and in assay [2] was 0.12 µg/mL (≈ 0.225 µM) each time.

Take `C[C@]1(COc2ccc(S(=O)(=O)N3CCN(c4cccc(Cl)c4)CC3)cc2)Cn2cc([N+](=O)[O-])nc2O1` [IIC3, (R)-2-{4-[4-(3-chlorophenyl)piperazin-1-yl]sulfonylphenoxymethyl}-2,3-dihydro-2-methyl-6-nitroimidazo[2,1-b]oxazole]: the MIC in assay [1] and in assay [2] was 8 µg/mL (≈ 15 µM) each time.

In the case of `C[C@]1(COc2ccccc2-n2cc(COc3ccc(F)cc3)nn2)Cn2cc([N+](=O)[O-])nc2O1` [IA40], the MIC in assay [1] and in assay [2] was 4 µg/mL (≈ 8.58 µM) throughout.

For `Cc1ccc(OCc2cn(-c3cccc(OC[C@@]4(C)Cn5cc([N+](=O)[O-])nc5O4)c3)nn2)cc1` [IA37], the MIC in assay [1] and in assay [2] was 4 µg/mL (≈ 8.65 µM) in each case.

`C[C@]1(COc2ccc(-c3cc(COc4ccc(OC(F)(F)F)cc4)on3)cc2)Cn2cc([N+](=O)[O-])nc2O1` [IC13, (R)-2-{4-[5-(4-trifluoromethoxyphenoxymethyl)isoxazol-3-yl]phenoxymethyl}-2,3-dihydro-2-methyl-6-nitroimidazo[2,1-b]oxazole]: the MIC in assay [1] and in assay [2] was 0.12 µg/mL (≈ 0.225 µM) each time.

The record behind these values is patent US9845330B2, “6-nitro-2,3-dihydroimidazo[2,1-b]oxazoles and a process for the preparation thereof” (priority 2013, dated 2017).
